From ChEMBL document CHEMBL1201862, “PubChem BioAssay data set” (2004)
Values joined by “and” are separate entries in the source; they are usually repeats but may differ in a detail not shown here. Identical values can stand only once. Active and inactive are the calls of the source.

Tests used:
[1] = Luminescence Cell-Based Dose Confirmation HTS to Identify Inhibitors of Platelet Dense Granule Release. [Related pubchem assays: 1663 (Primary HTS), 1678 (Summary of Project)]; type: functional
[2] = inhibitors of firefly luciferase expression or activity, dose response, H4 neuroglioma cells, luminescence (AID 1990); type: functional, cell-based
[3] = Fluorescence Cell-Based Dose Response to Identify Inhibitors of Thrombin Receptor-Activating Peptide SFLLRN-Mediated P-Selectin Induction on Platelets. [Related pubchem assays: 1663 (Primary HTS), 1889 (retest at dose ), 1891 (counterscreen), 1678 (Project Summary)]; type: functional
[4] = target: Luciferin 4-monooxygenase (Photinus pyralis, UniProt P08659); experiment: firefly luciferase enzyme inhibitors, dose response, biochemical, luminescence (AID 1891)
Luciferin 4-monooxygenase, sequence (P08659 whole entry): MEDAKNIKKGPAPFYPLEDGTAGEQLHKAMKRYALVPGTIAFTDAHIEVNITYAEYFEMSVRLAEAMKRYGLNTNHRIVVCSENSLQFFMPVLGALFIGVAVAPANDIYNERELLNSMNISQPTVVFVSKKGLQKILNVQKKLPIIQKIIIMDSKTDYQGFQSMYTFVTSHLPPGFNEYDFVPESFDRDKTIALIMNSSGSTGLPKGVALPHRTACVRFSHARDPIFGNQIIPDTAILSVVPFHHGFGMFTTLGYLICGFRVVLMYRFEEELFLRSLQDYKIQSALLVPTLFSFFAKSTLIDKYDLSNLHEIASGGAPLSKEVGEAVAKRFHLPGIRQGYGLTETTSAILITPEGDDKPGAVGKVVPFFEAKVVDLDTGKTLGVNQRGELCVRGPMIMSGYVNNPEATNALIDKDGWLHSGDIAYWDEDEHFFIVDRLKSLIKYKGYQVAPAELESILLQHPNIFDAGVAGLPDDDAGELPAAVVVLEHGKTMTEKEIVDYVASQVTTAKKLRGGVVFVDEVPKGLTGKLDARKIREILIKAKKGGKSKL

[5] = inhibitors of SNCA 5'UTR-driven reporter translation, confirmation, H4 neuroglioma cells, luminescence (AID 1988); type: functional, cell-based
[6] = Luminescence Cell-Based Dose Response HTS to Identify Inhibitors of 5'UTR Stem-Loop Driven Prion Protein mRNA Translation in H4 Neuroglioblastoma Cells. [Related pubchem assays: 1827 (Project Summary), 1813 (Primary HTS)]; type: functional
[7] = target: Serine/threonine-protein phosphatase PP1-alpha catalytic subunit (Homo sapiens, UniProt P62136); experiment: PP1 phosphatase inhibitors, dose response, biochemical, fluorescence (AID 2394)
Serine/threonine-protein phosphatase PP1-alpha catalytic subunit, sequence (P62136 whole entry): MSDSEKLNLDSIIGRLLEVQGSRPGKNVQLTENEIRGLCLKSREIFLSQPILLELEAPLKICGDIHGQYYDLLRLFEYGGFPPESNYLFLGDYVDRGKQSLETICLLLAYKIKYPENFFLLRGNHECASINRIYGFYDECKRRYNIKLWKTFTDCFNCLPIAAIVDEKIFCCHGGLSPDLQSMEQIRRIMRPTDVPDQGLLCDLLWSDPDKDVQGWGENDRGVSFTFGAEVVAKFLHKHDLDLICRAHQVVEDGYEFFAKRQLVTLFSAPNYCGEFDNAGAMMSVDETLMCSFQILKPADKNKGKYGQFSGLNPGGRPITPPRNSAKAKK

[8] = target: Serine/threonine-protein phosphatase (Homo sapiens, UniProt Q9BPW0); experiment: PP5 phosphatase inhibitors, dose response, biochemical, fluorescence (AID 2395)
Serine/threonine-protein phosphatase, sequence (Q9BPW0 whole entry): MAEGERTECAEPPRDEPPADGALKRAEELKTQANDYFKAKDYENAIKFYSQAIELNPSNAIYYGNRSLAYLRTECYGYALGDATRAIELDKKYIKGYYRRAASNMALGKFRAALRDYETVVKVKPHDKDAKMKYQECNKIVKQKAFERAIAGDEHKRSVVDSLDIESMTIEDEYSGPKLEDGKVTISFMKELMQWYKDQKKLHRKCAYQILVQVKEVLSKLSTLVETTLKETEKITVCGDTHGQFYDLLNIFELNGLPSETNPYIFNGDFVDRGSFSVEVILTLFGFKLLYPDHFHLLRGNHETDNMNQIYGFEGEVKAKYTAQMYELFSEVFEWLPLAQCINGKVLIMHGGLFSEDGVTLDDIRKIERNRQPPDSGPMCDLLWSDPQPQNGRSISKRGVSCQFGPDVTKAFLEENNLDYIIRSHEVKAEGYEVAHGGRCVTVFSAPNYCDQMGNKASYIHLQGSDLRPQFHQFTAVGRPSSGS

[9] = target: Glyceraldehyde-3-phosphate dehydrogenase (Homo sapiens, UniProt P04406)
Glyceraldehyde-3-phosphate dehydrogenase, sequence (P04406 whole entry): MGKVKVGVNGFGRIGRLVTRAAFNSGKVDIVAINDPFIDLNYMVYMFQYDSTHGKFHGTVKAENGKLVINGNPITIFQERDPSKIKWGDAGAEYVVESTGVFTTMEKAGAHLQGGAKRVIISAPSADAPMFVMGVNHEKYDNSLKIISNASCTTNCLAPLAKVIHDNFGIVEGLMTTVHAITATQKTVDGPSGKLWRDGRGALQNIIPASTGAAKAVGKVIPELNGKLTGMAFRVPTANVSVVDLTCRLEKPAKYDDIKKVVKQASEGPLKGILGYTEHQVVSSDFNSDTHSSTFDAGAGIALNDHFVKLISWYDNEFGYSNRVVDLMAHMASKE

[10] = cytotoxicity in HPDE-C7 cells, cell-based, fluorescence, HTS (AID 430); type: functional; conditions: Homo sapiens
[11] = target: T1, Bcl-2-related protein A1 (Mus musculus, UniProt Q07440); experiment: Bfl-1 inhibitors, primary screen, biochemical, fluorescence polarization, FITC-Bid, mouse (AID 432)
T1 sequence (Q07440 whole entry): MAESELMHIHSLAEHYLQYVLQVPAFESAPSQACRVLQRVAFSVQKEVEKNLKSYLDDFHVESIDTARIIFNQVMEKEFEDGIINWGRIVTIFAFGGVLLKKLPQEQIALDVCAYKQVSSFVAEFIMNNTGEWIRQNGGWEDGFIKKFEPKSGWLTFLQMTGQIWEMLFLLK

[12] = test system: HEK293; experiment: SAR analysis of compounds that are cytotoxic to HEK293 - Set 3. [Related pubchem assays (depositor defined):AID1575, AID1578, AID1848, AID1849, AID2001, AID2333, AID2334, AID2335, AID2337, AID2469]; type: functional, cell-based; conditions: Homo sapiens
[13] = HEK293T cell cytotoxicity, dose response, cytotoxicity control for HIV Vif inhibitor project, cherry-picks (AID 652208); type: functional, cell-based
[14] = inhibitors of PGC1a acetylation in cells, dose response, cell-based, cherry-picked samples (AID 720514); type: functional;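 also: potency may reflect raised or lowered acetylation signal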
[15] = target: T2, Hepatocyte nuclear factor 4-alpha (Homo sapiens, UniProt P41235); type: functional, cell-based;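 also: biochemical luminescence-based dose-response counterscreen measuring inhibition of HNF4 dimerization, run alongside a screen for blockers of ABHD5–perilipin-5 interaction; split luciferase complementation of HNF4 fusion proteins in cell lysate measuring dimerization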
T2 sequence (P41235 whole entry): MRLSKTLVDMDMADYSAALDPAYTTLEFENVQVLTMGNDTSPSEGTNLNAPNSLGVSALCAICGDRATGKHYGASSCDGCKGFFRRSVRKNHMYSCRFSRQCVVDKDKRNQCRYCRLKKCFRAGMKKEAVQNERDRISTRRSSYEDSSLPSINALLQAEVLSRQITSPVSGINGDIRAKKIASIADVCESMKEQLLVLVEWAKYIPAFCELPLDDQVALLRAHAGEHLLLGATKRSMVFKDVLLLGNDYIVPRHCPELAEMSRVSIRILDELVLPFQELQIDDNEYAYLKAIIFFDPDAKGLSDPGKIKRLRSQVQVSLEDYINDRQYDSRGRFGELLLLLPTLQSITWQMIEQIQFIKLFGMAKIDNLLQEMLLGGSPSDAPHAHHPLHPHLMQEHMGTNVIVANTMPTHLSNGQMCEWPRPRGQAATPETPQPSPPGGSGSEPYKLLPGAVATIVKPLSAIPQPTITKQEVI

[16] = target: T1, Bcl-2-related protein A1; experiment: Bfl-1 inhibitors blocking BH3 peptide binding, confirmation, biochemical, TR-FRET, mouse Bfl-1 (AID 621);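 also: TR-FRET binding of GST-Bfl-1 to FITC-labelled Bid peptide via terbium antibody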
[17] = Fluorescence-based cell-based high throughput dose response assay for inhibitors of the interaction of nucleotide-binding oligomerization domain containing 2 (NOD2) and the receptor-interacting serine-threonine kinase 2 (RIPK2).; type: functional, Homo sapiens; conditions: Homo sapiens
[18] = HepG2 cell cytotoxicity, dose response, cytotoxicity control for Shn3 inhibitor project, CellTiter-Glo, cherry-picked (AID 624134); type: functional, cell-based
[19] = target: Nucleotide-binding oligomerization domain-containing protein 2 (Homo sapiens, UniProt Q9HC29); experiment: NOD2 signaling inhibitors, analog potency, SAR follow-up, cell-based, set 3 (AID 2799); type: functional
[20] = Shn3 3'UTR reporter inhibitors, dose response, cell-based, Clone20 osteoblasts, firefly luciferase, cherry-picked (AID 624132); type: functional;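 also: firefly luciferase luminescence from reporter carrying the Shn3 3'UTR in osteoblasts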
[21] = C. albicans growth with fluconazole, confirmation, fluorescence, retest (AID 2467); type: functional, cell-based
[22] = NIH-3T3 fibroblast cytotoxicity, dose response, cytotoxicity control, cell-based, fluorescence, Alamar Blue, secondary assay (AID 2327); type: functional;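 also: NIH-3T3 mouse fibroblasts cultured with fluconazole at 8 µg/mL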
[23] = target: T1, Bcl-2-related protein A1; experiment: Bfl-1 binding inhibitors, SAR follow-up, biochemical, fluorescence polarization (AID 1070)
[24] = cytotoxicity in KRAS-transformed pancreatic duct cells, primary screen, cell-based, fluorescence, HTS (AID 431); type: functional; conditions: Homo sapiens;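 also: cell line used: HPDE-C7K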
[25] = control 3'UTR Renilla luciferase suppression, dose response, counter-screen for Shn3 inhibitor project, cell-based, Clone20-Shn3RL, cherry-picked (AID 624133); type: functional
[26] = target: Beta Lactamase (Pseudomonas aeruginosa, UniProt Q932Y6); experiment: beta-lactamase reporter inhibitor potency, dose response, artefact control for NOD2-RIPK2 interaction inhibitor project, BLA reporter cells, FRET fluorescence (AID 651552); type: functional, cell-based
Beta Lactamase, sequence (Q932Y6 whole entry): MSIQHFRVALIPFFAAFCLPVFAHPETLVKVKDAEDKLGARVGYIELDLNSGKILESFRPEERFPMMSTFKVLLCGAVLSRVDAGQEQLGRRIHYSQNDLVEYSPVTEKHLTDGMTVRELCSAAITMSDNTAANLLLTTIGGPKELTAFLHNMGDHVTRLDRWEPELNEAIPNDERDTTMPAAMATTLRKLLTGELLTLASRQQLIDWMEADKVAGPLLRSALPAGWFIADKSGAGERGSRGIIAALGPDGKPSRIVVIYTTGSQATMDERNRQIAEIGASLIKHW

[27] = target: G-protein coupled receptor 55 (Homo sapiens, UniProt Q9Y2T6); experiment: GPR55 antagonists blocking LPI-driven arrestin recruitment, primary screen, imaging, U2OS, beta-arrestin-GFP, LPI agonist (AID 2013); type: functional;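 also: antagonist potency measured as reduced agonist-driven arrestin aggregation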
G-protein coupled receptor 55, sequence (Q9Y2T6 whole entry): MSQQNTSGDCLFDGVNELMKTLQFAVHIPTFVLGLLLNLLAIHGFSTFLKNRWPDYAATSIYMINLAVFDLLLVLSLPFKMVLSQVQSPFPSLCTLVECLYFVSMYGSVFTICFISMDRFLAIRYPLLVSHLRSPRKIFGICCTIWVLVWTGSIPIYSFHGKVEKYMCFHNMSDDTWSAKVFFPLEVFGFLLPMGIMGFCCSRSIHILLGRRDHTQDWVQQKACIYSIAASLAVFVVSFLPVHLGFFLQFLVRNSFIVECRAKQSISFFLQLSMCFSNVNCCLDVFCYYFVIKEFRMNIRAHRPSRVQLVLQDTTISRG

[28] = target: Tumor necrosis factor (Homo sapiens, UniProt P01375); experiment: TNFa-triggered NF-kB activation inhibitors, SAR follow-up, cell-based, set 3 (AID 2801); type: functional
Tumor necrosis factor, sequence (P01375 whole entry): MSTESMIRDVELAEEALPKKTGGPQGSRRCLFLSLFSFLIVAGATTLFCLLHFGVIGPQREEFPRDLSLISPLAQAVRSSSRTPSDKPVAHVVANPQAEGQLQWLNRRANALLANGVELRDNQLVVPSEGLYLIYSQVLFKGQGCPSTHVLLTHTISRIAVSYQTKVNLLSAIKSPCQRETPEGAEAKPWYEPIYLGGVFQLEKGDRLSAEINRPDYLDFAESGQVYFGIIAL

[29] = target: Beta-galactosidase (Escherichia coli, UniProt Q8VNN2); experiment: beta-galactosidase enzyme inhibitors and activators, dose response, artefact control for CCR6 antagonist project, biochemical, E. coli enzyme, set 3 (AID 504712); type: functional
[30] = target: T3, Nucleotide-binding oligomerization domain-containing protein 1 (Homo sapiens, UniProt Q9Y239); experiment: SAR analysis of compounds that inhibit NOD1 - Set 3. [Related pubchem assays (depositor defined):AID1566, AID1575, AID1578, AID1849, AID1852, AID2333, AID2335, AID2466]; type: functional
T3 sequence (Q9Y239 whole entry): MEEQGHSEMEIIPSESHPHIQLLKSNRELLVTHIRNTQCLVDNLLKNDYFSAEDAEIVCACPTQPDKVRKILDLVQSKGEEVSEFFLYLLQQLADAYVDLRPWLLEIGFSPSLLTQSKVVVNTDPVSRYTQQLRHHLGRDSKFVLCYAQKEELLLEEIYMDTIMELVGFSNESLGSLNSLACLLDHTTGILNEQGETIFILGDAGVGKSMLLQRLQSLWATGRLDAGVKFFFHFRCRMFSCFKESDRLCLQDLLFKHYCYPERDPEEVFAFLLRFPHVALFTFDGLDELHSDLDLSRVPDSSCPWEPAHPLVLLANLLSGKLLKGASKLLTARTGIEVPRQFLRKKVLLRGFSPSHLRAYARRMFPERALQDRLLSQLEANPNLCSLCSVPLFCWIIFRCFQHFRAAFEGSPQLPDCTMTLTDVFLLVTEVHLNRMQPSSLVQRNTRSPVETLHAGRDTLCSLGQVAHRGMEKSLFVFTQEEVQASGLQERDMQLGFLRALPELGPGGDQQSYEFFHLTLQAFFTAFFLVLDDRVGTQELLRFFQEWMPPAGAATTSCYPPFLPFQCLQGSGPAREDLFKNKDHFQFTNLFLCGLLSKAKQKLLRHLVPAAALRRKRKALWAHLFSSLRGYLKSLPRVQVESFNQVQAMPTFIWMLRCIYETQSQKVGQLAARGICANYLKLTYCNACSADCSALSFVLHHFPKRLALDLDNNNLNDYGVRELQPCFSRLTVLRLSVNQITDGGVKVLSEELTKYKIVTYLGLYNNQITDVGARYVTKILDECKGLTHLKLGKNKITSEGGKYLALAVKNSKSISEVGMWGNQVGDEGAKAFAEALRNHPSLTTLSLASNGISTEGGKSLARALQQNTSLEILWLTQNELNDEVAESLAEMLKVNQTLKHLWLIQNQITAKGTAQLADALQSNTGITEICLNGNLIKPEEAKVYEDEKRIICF

[31] = target: Protein-tyrosine kinase 2-beta (Homo sapiens, UniProt Q14289);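 also: potency of inhibitors of PYK2 kinase phosphorylation of poly-GT substrate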
Protein-tyrosine kinase 2-beta, sequence (Q14289 whole entry): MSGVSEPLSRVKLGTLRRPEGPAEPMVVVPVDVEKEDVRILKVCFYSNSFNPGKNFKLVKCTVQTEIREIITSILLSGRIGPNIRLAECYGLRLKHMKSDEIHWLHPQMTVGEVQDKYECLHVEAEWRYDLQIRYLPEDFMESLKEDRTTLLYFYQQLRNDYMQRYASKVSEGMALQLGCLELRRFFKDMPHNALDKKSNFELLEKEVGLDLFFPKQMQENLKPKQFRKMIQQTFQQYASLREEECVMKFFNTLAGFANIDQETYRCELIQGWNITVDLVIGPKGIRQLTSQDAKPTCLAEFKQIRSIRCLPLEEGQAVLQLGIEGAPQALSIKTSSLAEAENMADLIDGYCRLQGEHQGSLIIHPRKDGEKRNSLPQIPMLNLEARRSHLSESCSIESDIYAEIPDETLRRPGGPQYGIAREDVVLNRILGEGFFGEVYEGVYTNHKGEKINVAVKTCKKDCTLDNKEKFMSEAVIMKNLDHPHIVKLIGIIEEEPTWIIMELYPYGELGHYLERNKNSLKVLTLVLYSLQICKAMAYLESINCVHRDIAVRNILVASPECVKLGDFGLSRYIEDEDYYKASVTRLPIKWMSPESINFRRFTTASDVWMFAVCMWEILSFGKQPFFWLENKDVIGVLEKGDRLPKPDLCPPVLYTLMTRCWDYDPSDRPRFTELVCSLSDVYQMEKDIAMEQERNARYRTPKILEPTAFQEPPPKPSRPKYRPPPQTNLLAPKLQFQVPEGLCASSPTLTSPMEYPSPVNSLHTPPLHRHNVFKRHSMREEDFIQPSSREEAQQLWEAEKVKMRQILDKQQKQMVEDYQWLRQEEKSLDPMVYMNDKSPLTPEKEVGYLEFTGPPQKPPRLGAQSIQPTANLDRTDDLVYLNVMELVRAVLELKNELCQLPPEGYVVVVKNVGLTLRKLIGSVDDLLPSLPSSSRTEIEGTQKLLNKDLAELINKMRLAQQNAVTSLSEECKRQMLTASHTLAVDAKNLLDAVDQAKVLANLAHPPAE

[32] = test system: Vero; experiment: cells; type: functional; conditions: Chlorocebus sabaeus
[33] = test system: Vero; experiment: West Nile virus antiviral activity, cell-based, CPE readout (AID 1621); type: functional; conditions: Chlorocebus sabaeus
[34] = test system: Vero; experiment: cells; type: functional, cell-based; conditions: Chlorocebus sabaeus
[35] = target: Galanin receptor type 2 (Homo sapiens, UniProt O43603); experiment: Dose Response cell-based high-throughput screening assay to identify antagonists of galanin receptor 2 (GALR2). [Related pubchem assays: 828, 866 ]; type: functional
Galanin receptor type 2, sequence (O43603 whole entry): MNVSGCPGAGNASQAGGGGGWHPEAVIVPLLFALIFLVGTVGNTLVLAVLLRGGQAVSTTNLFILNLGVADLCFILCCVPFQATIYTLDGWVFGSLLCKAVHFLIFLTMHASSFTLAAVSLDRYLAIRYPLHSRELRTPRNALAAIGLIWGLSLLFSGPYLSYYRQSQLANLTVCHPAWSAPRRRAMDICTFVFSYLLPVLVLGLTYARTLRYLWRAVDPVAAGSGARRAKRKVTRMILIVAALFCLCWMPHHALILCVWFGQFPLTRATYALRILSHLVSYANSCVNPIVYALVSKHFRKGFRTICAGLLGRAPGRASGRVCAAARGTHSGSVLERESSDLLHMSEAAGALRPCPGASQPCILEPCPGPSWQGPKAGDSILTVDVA

[36] = target: Aryl hydrocarbon receptor (Homo sapiens, UniProt P35869); experiment: Luminescence-based cell-based high throughput dose response assay for activators of the Aryl Hydrocarbon Receptor (AHR). [Related pubchem assays: 2796 (Primary screen (AHR activators in singlicate)), 2845 (Confirmation screen (AHR activators in triplicate)), 434939 (Counterscreen (PXR activators in triplicate)), 2804 (Summary (AHR activators))]; type: ADME
Aryl hydrocarbon receptor, sequence (P35869 whole entry): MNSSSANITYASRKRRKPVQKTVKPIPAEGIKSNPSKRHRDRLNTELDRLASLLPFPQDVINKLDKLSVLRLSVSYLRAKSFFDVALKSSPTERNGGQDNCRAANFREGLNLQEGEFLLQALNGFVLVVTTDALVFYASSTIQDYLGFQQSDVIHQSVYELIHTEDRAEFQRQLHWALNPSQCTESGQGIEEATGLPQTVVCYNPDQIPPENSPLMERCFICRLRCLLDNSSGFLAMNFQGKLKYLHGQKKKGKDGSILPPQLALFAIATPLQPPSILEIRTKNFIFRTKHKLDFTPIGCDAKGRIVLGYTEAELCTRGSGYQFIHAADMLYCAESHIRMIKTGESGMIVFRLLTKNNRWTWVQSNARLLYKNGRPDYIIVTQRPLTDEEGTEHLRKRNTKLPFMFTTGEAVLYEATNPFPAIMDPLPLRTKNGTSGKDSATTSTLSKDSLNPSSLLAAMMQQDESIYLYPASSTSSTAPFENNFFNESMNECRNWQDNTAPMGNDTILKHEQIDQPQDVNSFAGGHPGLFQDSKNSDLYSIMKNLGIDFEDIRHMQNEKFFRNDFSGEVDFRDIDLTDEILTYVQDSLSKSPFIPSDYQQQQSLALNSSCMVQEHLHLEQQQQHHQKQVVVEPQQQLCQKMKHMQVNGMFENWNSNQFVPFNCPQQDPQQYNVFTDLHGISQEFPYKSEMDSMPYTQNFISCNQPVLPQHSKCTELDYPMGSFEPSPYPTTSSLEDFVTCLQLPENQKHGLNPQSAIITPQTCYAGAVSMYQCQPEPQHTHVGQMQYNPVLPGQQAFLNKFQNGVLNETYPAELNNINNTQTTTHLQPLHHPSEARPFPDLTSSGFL

[37] = target: T4, Long-chain-fatty-acid--AMP ligase FadD28 (Mycobacterium tuberculosis, UniProt P9WQ59); experiment: Fluorescence polarization aasay to screen for inhibitors that compete for the binding of FadD28 to a bisubstrate Measured in Biochemical System Using Plate Reader - 2147-01_Inhibitor_Dose_CherryPick_Activity.; type: functional, Mycobacterium tuberculosis H37Rv
T4 sequence (P9WQ59 whole entry): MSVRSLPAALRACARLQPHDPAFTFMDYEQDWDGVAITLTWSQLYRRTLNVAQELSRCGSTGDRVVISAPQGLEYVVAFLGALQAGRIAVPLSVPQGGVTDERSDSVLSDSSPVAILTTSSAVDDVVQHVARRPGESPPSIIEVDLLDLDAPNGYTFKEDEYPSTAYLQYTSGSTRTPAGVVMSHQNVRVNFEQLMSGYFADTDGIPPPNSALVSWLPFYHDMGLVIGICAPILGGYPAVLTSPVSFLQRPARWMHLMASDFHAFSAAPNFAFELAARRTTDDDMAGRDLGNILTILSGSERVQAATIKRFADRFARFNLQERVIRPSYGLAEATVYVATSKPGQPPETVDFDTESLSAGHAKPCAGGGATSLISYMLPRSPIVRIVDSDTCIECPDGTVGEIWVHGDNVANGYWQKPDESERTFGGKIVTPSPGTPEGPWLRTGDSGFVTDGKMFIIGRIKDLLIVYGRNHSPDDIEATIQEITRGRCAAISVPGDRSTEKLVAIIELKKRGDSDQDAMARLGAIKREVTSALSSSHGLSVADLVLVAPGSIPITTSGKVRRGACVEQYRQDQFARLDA

[38] = target: Voltage-gated inwardly rectifying potassium channel KCNH2 (Homo sapiens, UniProt Q12809); experiment: hERG protection from proarrhythmic block, potency, dose response, cell-based, thallium flux (AID 2121); type: ADME

## COc1cc2c(cc1OC)-c1cc(Nc3ccccc3C)nc(=O)n1CC2
[1]
  EC50: 0.24 µM (active)
[2]
  EC50: 15.6 µM (active)
[3]
  EC50: < 0.3 µM (active)
[4]
  EC50: > 112 µM (not active)
[5]
  EC50: 17.8 µM (active)
[6]
  EC50: 49.5 µM (active)

## O=C(O)c1[nH]nnc1-c1ccccc1
[7]
  IC50: > 67 µM (not active)
[8]
  IC50: 13 µM (not active)

## COc1ccc(-c2cc(N)n(S(=O)(=O)c3c(F)c(F)c(F)c(F)c3F)n2)cc1OC
[9]
  IC50: > 100 µM (not active)
[10]
  EC50: 2.82 µM (active)
[11]
  IC50: 5.82 µM (active)
[12]
  IC50: > 20 µM (inactive)
[13]
  AC50: 3.69 µM (active)
[14]
  AC50: 8.51 µM (active)
[15]
  IC50: 6.26 µM (active)
[16]
  IC50: 4.33 µM (active) and 4.96 µM (active)
[17]
  IC50: 0.951 µM (active)
[18]
  AC50: 20.2 µM (active)
[19]
  IC50: 16.4 µM (active)
[20]
  AC50: 0.896 µM (active)
[21]
  EC50: 3.9 µM (active)
[22]
  EC50: 5.96 µM (inconclusive)
[23]
  IC50: 5.39 µM (active)
[24]
  EC50: 2.15 µM (active)
[25]
  AC50: 4.25 µM (active)
[26]
  IC50: 34.3 µM (inactive)
[27]
  IC50: 1.18 µM (active)
[28]
  IC50: 10.3 µM (active)
[29]
  IC50: > 66.6 µM (inactive)
[30]
  IC50: 16.2 µM (active)

## COC(=O)Cc1ccc2c3ccccc3n(C)c2c1
[31]
  IC50: > 69.5 µM (not active)

## Cc1ccc(S(=O)(=O)N(C)C)cc1NC(=O)c1cncc(Br)c1
[32]
  CC50: > 25 µM (active)
[33]
  IC50: 32 µM (active)
[34]
  IC50: > 25 µM (active)

## Cc1nnc(SCC(=O)Nc2cccc(S(=O)(=O)N(C)c3ccccc3)c2)s1
[35]
  IC50: > 42 µM (not active)

## COc1ccc(/C=N/NC(=O)c2cccc(NC(=O)c3ccc(F)cc3)c2)c(C(=O)O)c1OC
[36]
  EC50: 5.48 µM (active)

## Cc1nn(-c2cccc3ccccc23)c(O)c1/C=N/c1sc2c(c1C#N)CCC2
[37]
  AC50: 91.8 µM (active)
[38]
  EC50: 6.13 µM (active)
